Test results reported in EP3042903B1, “Substituted hetero-bicyclic compounds, compositions and medicinal applications thereof” (Impetis Biosciences Ltd., priority 2015, dated 2016).

Tests used:
[1] = system: B cell activation as measured by CD69 expression in Human whole blood; assay: Inhibition of B cell activation as measured by CD69 expression in Human whole blood (flow cytometry); type: cell-based; settings: heparinized human whole blood, anti-IgD antibody 30 µg/mL, 4 hours, CD69 positive cells among CD20 B cells
Experimental: Inhibition of B cell activation as measured by CD69 expression in Human whole blood
To test the effect of BTK inhibitors in suppressing B-cell receptor (BCR) mediated activation of B cells, we developed a flow cytometry based assay to analyze CD69 expression in B cell population in human whole blood. Freshly collected heparinized human whole blood (60 µL/well) was dispensed in 96-well U bottom plate (Greiner), treated with the test compound at a concentrations ranging from 10 µM to 0.3 nM (half log dilutions). 0.5% DMSO (Sigma, cat#D2650) was used as vehicle control. The whole blood was incubated with compounds for 1 hour, followed by stimulation with anti-IgD antibody (Goat Anti-Human IgD Antibody - affinity purified, Bethyl laboratories, cat#A80-106A) at a final concentration of 30 µg/mL at 37°C and 5% CO2 for 4 hours. Subsequently, 45 µL blood was transferred to 1.5 ml microcentrifuge tubes and 1.2 µL of anti-CD20-PE.Cy5 (BD Biosciences, cat#561761)and 1.6 µL of anti-CD69-PE (eBioscience, cat#12-0691-83) antibody were added and mixed properly by gently tapping the tubes. Blood was stained for 20 minutes at room temperature (RT). After antibody incubation, 1 mL pre-warmed 1X Lyse/Fix solution (BD Biosciences, cat#558049) was added and cells were incubated at RT for 10 minutes. Then the tubes were centrifuged at 450xg for 5 minutes at RT and supernatant was removed. Pellet was disrupted by gentle tapping, cells were washed with 1 mL freshly prepared wash buffer and centrifuged at 450xg for 5 minutes at RT. Supernatant was removed completely before resuspending cells in 200 µl of wash buffer and proceeded for acquisition in Guava Easy Cyte Mini instrument. Acquisition was done with following laser settings: FSC Gain: X 16, FSC fine gain 100%, SSC: 893V, GRN: 663V, YLW: 649V, RED: 802V, Threshold Parameters Offset: FSC 0.73 V Threshold 300 units. The cells were diluted in such a way so that cell conc. should not exceed 500 cells/µL and at least 5000 cells were acquired. Viable lymphocytes were gated from the forward and side scatter profile of cells and B cells were sub-gated based on CD20-PE.Cy5 staining. Percent of CD69-PE positive cells were calculated among B lymphocyte sub-gate using Weasel software. Percent activity for each data point was calculated using following formula: [formula]
(§1) Percentage activity was fit using sigmoid dose response with variable slope logistic equation in GraphPad Prism 5 software to determine IC50.

[2] = system: B cell activation as measured by CD69 expression in mouse splenocytes; assay: Inhibition of B cell activation as measured by CD69 expression in mouse splenocytes (flow cytometry); type: cell-based; settings: C57/BL6 splenocytes, 3 µg/mL goat anti-mouse IgM, 18-20 hours, CD69 +ve cells within CD19; read-out: IC50 (nM) in B cell activation assay in Mouse spleenocytes
Description: Inhibition of B cell activation as measured by CD69 expression in mouse splenocytes:
To test the effect of BTK inhibitors in suppressing B-cell receptor (BCR) mediated activation of B cells, we developed a flow cytometry based assay to analyze CD69 expression in B cell population among total splenocyte from the mouse. C57/BL6 mouse spleens were dissected out and splenocytes were isolated by mincing the tissue with a syringe plunger followed by RBC lysis (0.85% ammonium chloride, (Qualigens,Cat #21405) and several washes in PBS. Finally, cell were cultured in culture medium [RPMI medium (Sigma, Cat R6504) with 10% FBS (Gibco - Cat #10270).
Test compounds were diluted half log starting from 2 mM in 100% DMSO (Sigma, cat#D2650) (200X). 1x10^5 splenocytes were incubated with 1 µL of diluted test compounds in 200 µL culture medium in a U-bottom 96 well plate (Greiner) at 37°C with 5% CO2 for 30 minutes. Control wells received 1 µL of 100% DMSO without any compound. The cells were stimulated with 3 µg/mL goat anti-mouse IgM (Sigma, cat#M8644) and incubated for 18-20 hours. After the stimulation, cells were washed in cold PBS with 1% FBS and stained with 1:100 dilution of anti-CD69-PE (eBioscience, cat#12-0691-83) and anti-CD19-PE.Cy5 (eBioscience, cat#15-0193-83) for 1 hour on ice. Then the cells were washed 3 times with PBS with 1% FBS and analyzed by Guava Easycyte Mini flow cytometer system (Millipore). Flow cytometry data were analyzed using Weasel software (WEHI, Melbourne). B cells were gated using CD19 marker. Expression of CD69 was analyzed as percentage of CD69 +ve cells within CD19. Percent activity for each data point was calculated using following formula: [formula]
as §1

[3] = target: T1, Recombinant Human Bruton's tyrosine kinase (Btk) (Homo sapiens, UniProt Q06187); assay: Recombinant Human Bruton's tyrosine kinase (Btk) inhibition assay (HTRF KinEASE-TK); type: biochemical; settings: 20 ng/ml rhBtk, 77 µM ATP (KM), 1 µM TK-Biotin Substrate, 90 minutes; read-out: IC50 (nM) in recombinant hBTK assay
T1 construct: Full length human BTK (hBTK, Genbank#NM_000061.2) was cloned into pFastBac-HTB vector; 6XHis (N); made in house; host or cells: Sf9 cells (Bac-to-Bac baculovirus expression system)
T1 sequence (Q06187 whole entry): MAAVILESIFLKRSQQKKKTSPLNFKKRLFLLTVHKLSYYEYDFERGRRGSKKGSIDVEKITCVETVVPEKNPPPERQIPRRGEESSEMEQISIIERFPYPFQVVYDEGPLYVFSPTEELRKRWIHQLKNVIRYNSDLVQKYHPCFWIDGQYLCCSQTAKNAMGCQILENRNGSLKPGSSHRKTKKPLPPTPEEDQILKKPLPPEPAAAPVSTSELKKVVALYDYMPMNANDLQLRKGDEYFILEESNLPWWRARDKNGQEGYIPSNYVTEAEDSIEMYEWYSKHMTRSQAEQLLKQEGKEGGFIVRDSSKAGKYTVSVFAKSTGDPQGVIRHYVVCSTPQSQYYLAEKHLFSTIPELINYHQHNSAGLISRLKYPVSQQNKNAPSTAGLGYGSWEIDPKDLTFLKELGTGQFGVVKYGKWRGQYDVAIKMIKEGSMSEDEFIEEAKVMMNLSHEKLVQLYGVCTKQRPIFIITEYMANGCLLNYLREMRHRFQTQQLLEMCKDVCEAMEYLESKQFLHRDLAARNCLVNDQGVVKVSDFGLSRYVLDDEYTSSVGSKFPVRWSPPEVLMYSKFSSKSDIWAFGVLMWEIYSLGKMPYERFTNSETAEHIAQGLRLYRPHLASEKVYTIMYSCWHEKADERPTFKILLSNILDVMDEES
Experimental: Recombinant Human Bruton's tyrosine kinase (Btk) inhibition assay.
Full length human BTK (hBTK, Genbank#NM_000061.2) was cloned into pFastBac-HTB vector (Invitrogen, cat#10359-016). hBTK gene was expressed with N'-terminal 6XHis tag in Sf9 cells using Bac-to-Bac ^(R) Baculovirus expression system (Invitrogen, cat#10359-016) and the recombinant protein was purified by Ni-NTA method. The elution buffer for hBTK consisted of 50 mM Hepes pH 8.0, 300 mM NaCl, 10% glycerol, 1 mM dithiothreitol and 200 mM imidazole.
The inhibition assays were performed using the generic tyrosine kinase assay kit from Cis Bio (HTRF® KinEASE - TK™ # 62TK0PEB). The assay is based on the principle of fluorescence resonance energy transfer (FRET) between the Europium Cryptate labeled anti-phosphotyrosine antibody and streptavidin labeled fluorophore, XL-665. In an uninhibited kinase reaction the biotinylated peptide substrate (Tk-Biotin) gets phosphorylated at an intermediate tyrosine site which is captured by anti-phosphotyrosine antibody which eventually acts as a FRET donor. The streptavidin labeled XL-665 binds strongly to the Tk-Biotin substrate and act as a FRET acceptor. The resultant FRET signal is measured at 665 nm. A ratio of this specific fluorescence (665nm) to the background fluorescence (620nm), conferred by the free antibody, is directly proportional to the kinase activity.
The Btk inhibition assays were performed using 20 ng/ml of rhBtk in a final volume of 10µl reaction buffer containing 77 µM ATP and 1 µM TK-Biotin Substrate in 50 mM HEPES pH 7.0, 5mM MgCl2, 1mM DTT, 0.01% Tween 20 and 50nM SEB®; with a range of concentrations of the inhibitors. The kinase reaction was carried out at the KM of ATP (77 µM) as well as that of Tk-Biotin substrate (1 µM). After 90 minutes, the reaction was stopped by addition of SA-XL665 at a concentration of 62.5 nM in HTRF® detection buffer containing EDTA. Finally 5 µL of TK antibody-cryptate was added to the reaction and the plate was incubated for additional 60 minutes. The fluorescence was read using the FlexStation (Molecular Devices) with excitation at 340 nm and emissions at 620nm (for Cryptate) and 665nm (for FRET). A ratio of the 2 emissions was calculated for each well and expressed as follows: Specific signal = Ratio(Sample)−Ratio(Negative) [formula] Ratio = (665nm/620nm) × 10^4 [formula] Mean Ratio = ∑Ratio/3(triplicates) [formula]
For each data point, % inhibition is calculated based on uninhibited reaction which is considered as 100% activity over no enzyme or substrate controls. Dose response data is then fit using a four parameter logistic equation using GraphPad Prism 5 software to determine inhibition constant 50(IC50).

Row | Structure (SMILES) | IC50 [1] [nM] | IC50 [2] [nM] | IC50 [3] [nM]
1 | O=C1c2c(F)cc(C3CC3)cc2OCCN1c1cc(F)cc(-c2ccnc3[nH]c(-c4ccc(CN5CCN(C6COC6)CC5)cn4)cc23)c1CO [Example 1, 8-cyclopropyl-6-fluoro-4-[5-fluoro-2-(hydroxymethyl)-3-[2-[5-[[4-(oxetan-3-yl)piperazin-1-yl]methyl]-2-pyridyl]-1H-pyrrolo[2,3-b]pyridin-4-yl]phenyl]-2,3-dihydro-1,4-benzoxazepin-5-one] | 16.5 | 2.7 | –
2 | O=C1c2c(F)cc(C3CC3)cc2OCCN1c1cc(F)cc(-c2ccnc3[nH]c(-c4ccc(CN5CCN(CC(F)(F)F)CC5)cn4)cc23)c1CO [Example 2] | 55.9 | 2.7 | 1.9
3 | O=C1c2c(F)cc(C3CC3)cc2OCCN1c1cc(F)cc(-c2ccnc3[nH]c(-c4ccc(CN5CCN(CC(F)F)CC5)cn4)cc23)c1CO [Example 3, 8-cyclopropyl-4-[3-[2-[5-[[4-(2,2-difluoroethyl)piperazin-1-yl]methyl]-2-pyridyl]-1H-pyrrolo[2,3-b]pyridin-4-yl]-5-fluoro-2-(hydroxymethyl)phenyl]-6-fluoro-2,3-dihydro-1,4-benzoxazepin-5-one] | 54.2 | 2.4 | 0.65
4 | O=C1c2c(F)cc(C3CC3)cc2OCCN1c1cc(F)cc(-c2ccnc3[nH]c(-c4ccc(CN5CCOCC5)cn4)cc23)c1CO [Example 4, 8-cyclopropyl-6-fluoro-4-[5-fluoro-2-(hydroxymethyl)-3-[2-[5-(morpholinomethyl)-2-pyridyl]-1H-pyrrolo[2,3-b]pyridin-4-yl]phenyl]-2,3-dihydro-1,4-benzoxazepin-5-one] | – | – | 0.55
5 | C[C@H]1CN(Cc2ccc(-c3cc4c(-c5cc(F)cc(N6CCOc7cc(C8CC8)cc(F)c7C6=O)c5CO)ccnc4[nH]3)nc2)CCN1CC(F)F [Example 5, 8-cyclopropyl-4-[3-[2-[5-[[(3S)-4-(2,2-difluoroethyl)-3-methyl-piperazin-1-yl]methyl]-2-pyridyl]-1H-pyrrolo[2,3-b]pyridin-4-yl]-5-fluoro-2-(hydroxymethyl)phenyl]-6-fluoro-2,3-dihydro-1,4-benzoxazepin-5-one] | – | – | 3

Now from value to molecule:

Row | IC50 [1] [nM] | IC50 [2] [nM] | IC50 [3] [nM] | Structure (SMILES)
6 | – | – | 2.7 | C[C@H]1CN(CC(F)F)CCN1Cc1ccc(-c2cc3c(-c4cc(F)cc(N5CCOc6cc(C7CC7)cc(F)c6C5=O)c4CO)ccnc3[nH]2)nc1 [Example 6, 8-cyclopropyl-4-[3-[2-[5-[[(2S)-4-(2,2-difluoroethyl)-2-methyl-piperazin-1-yl]methyl]-2-pyridyl]-1H-pyrrolo[2,3-b]pyridin-4-yl]-5-fluoro-2-(hydroxymethyl)phenyl]-6-fluoro-2,3-dihydro-1,4-benzoxazepin-5-one]
7 | – | – | 1.8 | C[C@@H]1CN(Cc2ccc(-c3cc4c(-c5cc(F)cc(N6CCOc7cc(C8CC8)cc(F)c7C6=O)c5CO)ccnc4[nH]3)nc2)CCN1CC(F)F [Example 7, 8-cyclopropyl-4-[3-[2-[5-[[(3R)-4-(2,2-difluoroethyl)-3-methyl-piperazin-1-yl]methyl]-2-pyridyl]-1H-pyrrolo[2,3-b]pyridin-4-yl]-5-fluoro-2-(hydroxymethyl)phenyl]-6-fluoro-2,3-dihydro-1,4-benzoxazepin-5-one]
8 | – | 47 | 2.5 | O=C1c2ccc(C3CC3)cc2OCCN1c1cc(F)cc(-c2ccnc3[nH]c(C4=CCN(C5COC5)CC4)cc23)c1CO [Example 9, 8-cyclopropyl-4-[5-fluoro-2-(hydroxymethyl)-3-[2-[1-(oxetan-3-yl)-3,6-dihydro-2H-pyridin-4-yl]-1H-pyrrolo[2,3-b]pyridin-4-yl]phenyl]-2,3-dihydro-1,4-benzoxazepin-5-one]
9 | – | 27 | 4 | CC(C)(O)CN1CC=C(c2cc3c(-c4cc(F)cc(N5CCOc6cc(C7CC7)ccc6C5=O)c4CO)ccnc3[nH]2)CC1 [Example 10, 8-cyclopropyl-4-[5-fluoro-2-(hydroxymethyl)-3-[2-[1-(2-hydroxy-2-methyl-propyl)-3,6-dihydro-2H-pyridin-4-yl]-1H-pyrrolo[2,3-b]pyridin-4-yl]phenyl]-2,3-dihydro-1,4-benzoxazepin-5-one]
10 | – | – | 1.15 | O=C1c2c(F)cc(C3CC3)cc2OCCN1c1cc(F)cc(-c2ccnc3[nH]c(-c4ccc(OC5CCN(C6COC6)CC5)cn4)cc23)c1CO [Example 11, 8-cyclopropyl-6-fluoro-4-[5-fluoro-2-(hydroxymethyl)-3-[2-[5-[[1-(oxetan-3-yl)-4-piperidyl]oxy]-2-pyridyl]-1H-pyrrolo[2,3-b]pyridin-4-yl]phenyl]-2,3-dihydro-1,4-benzoxazepin-5-one]
